One data set addresses Ephrin type-A receptor 2 (Homo sapiens, UniProt P29317). Put plainly: Inhibition of human EphA2 by FRET assay.
Data set [1] relates to Plasmodium falciparum. Put plainly: microbe, parasite or virus in culture. To be noted: Dd2, 72 h.
Description: Antiplasmodial activity against asynchronous Plasmodium falciparum Dd2 assessed as parasite growth reduction incubated for 72 hrs by SYBR Green I dye based analysis
The test system of data set [2] is Plasmodium falciparum. Put plainly: Antimalarial activity against Plasmodium falciparum at ring stage infected erythrocytes assessed as reduction in parasitemia measured after 60 hrs by flow cytometry. The data set is classed as functional, organism-based. The conditions noted are these: Erythrocyte.
Data set [3] has as its system Plasmodium falciparum. Kind of data set: Antimalarial activity against synchronous blood-stage Plasmodium falciparum 3D7 assessed as log of parasite reduction ratio at 10 times EC50 treated every 24 hrs for 120 hrs followed by compound washout and subsequent addition of RBCs measured after 21 days. Type of data set: functional.
Data set [4] concerns Plasmodium falciparum. Kind of data set: Antimalarial activity against synchronous blood-stage Plasmodium falciparum 3D7 assessed as duration of lag phase at 10 times EC50 treated every 24 hrs for 120 hrs followed by compound washout and subsequent addition of RBCs measured after 21 days by parasite reduction ratio assay. The data set is classed as functional.
For data set [5], the system named is Plasmodium falciparum. Kind of data set: Antimalarial activity against synchronous blood-stage Plasmodium falciparum 3D7 assessed as parasite clearance time at 10 times EC50 treated every 24 hrs for 120 hrs followed by compound washout and subsequent addition of RBCs measured after 21 days by parasite reduction ratio assay. The data set is classed as functional.

Data set [6] concerns Plasmodium falciparum. Put plainly: Antimalarial activity against Plasmodium falciparum harboring PI4K S1320L mutation assessed as reduction in parasitemia incubated for 72 hrs by SYBR green I dye based analysis. Type of data set: functional, organism-based.
The subject of data set [7] is Plasmodium falciparum. Kind of data set: Antimalarial activity against Plasmodium falciparum harboring CARL I1139K mutation assessed as reduction in parasitemia incubated for 72 hrs by SYBR green I dye based analysis. The data set is classed as functional, organism-based.
Data set [8] concerns Plasmodium falciparum. Put plainly: Antimalarial activity against Plasmodium falciparum harboring AcAS A597V mutation assessed as reduction in parasitemia incubated for 72 hrs by SYBR green I dye based analysis. The data set is classed as functional, organism-based.
For data set [9], the system named is Plasmodium falciparum. Put plainly: microbe, parasite or virus in culture. The conditions noted are these: Dd2, 72 h. The source holds these as a separate data set.
Description: Antimalarial activity against wild-type Plasmodium falciparum Dd2 assessed as reduction in parasitemia incubated for 72 hrs by SYBR green I dye based analysis
Data set [10] concerns Plasmodium falciparum. Kind of data set: Resistance index, ratio of EC50 for multidrug-resistant Plasmodium falciparum Dd2 at ring stage infected in A+ erythrocytes to EC50 for drug-sensitive Plasmodium falciparum 3D7 at ring stage infected in A+ erythrocytes. The data set is classed as organism-based. The conditions noted are these: human.
Data set [11] is described as follows: Selectivity index, ratio of EC50 for human MCF7 cells to EC50 for multidrug-resistant Plasmodium falciparum Dd2 at ring stage infected in A+ erythrocytes. Type of data set: toxicity, cell-based. To be noted: read-out: Ratio EC50.
The nature of data set [12]: Metabolic stability in mouse liver microsomes assessed as intrinsic clearance. The data set is classed as ADME, Liver cells.
The subject of a further data set is MCF7. Kind of data set: Cytotoxicity against human MCF7 cells assessed as reduction in cell viability incubated for 48 hrs by MTS assay. The conditions noted are these: mcf7. The data set is classed as toxicity, cell-based.
Data set [13] has as its system Plasmodium falciparum. Put plainly: Antiplasmodial activity against drug-sensitive Plasmodium falciparum 3D7 at ring stage infected in A+ erythrocytes assessed as parasite growth reduction incubated for 72 hrs by SYBR Green I dye based analysis. The data set is classed as functional, organism-based. To be noted: 3D7, Erythrocyte.
The test system of data set [14] is Plasmodium falciparum. Kind of data set: Antiplasmodial activity against multidrug-resistant Plasmodium falciparum Dd2 at ring stage infected in A+ erythrocytes assessed as parasite growth reduction incubated for 72 hrs by SYBR Green I dye based analysis. The data set is classed as functional, organism-based. To be noted: Dd2, Erythrocyte.
A short description of data set [15]: Selectivity index, ratio of EC50 for human HepG2 cells to EC50 for multidrug-resistant Plasmodium falciparum Dd2 at ring stage infected in A+ erythrocytes. The data set is classed as toxicity, cell-based. The conditions noted are these: read-out: Ratio EC50.
Data set [16] in a line: Metabolic stability in mouse liver microsomes assessed as half life. Type of data set: ADME, Liver cells.
In a further data set the test system is HepG2. Put plainly: Cytotoxicity against human HepG2 cells assessed as reduction in cell viability incubated for 48 hrs by MTS assay. Type of data set: toxicity, cell-based. To be noted: hepg2.

The structures appear in SMILES notation.

Ephrin type-A receptor 2, sequence (P29317 whole entry): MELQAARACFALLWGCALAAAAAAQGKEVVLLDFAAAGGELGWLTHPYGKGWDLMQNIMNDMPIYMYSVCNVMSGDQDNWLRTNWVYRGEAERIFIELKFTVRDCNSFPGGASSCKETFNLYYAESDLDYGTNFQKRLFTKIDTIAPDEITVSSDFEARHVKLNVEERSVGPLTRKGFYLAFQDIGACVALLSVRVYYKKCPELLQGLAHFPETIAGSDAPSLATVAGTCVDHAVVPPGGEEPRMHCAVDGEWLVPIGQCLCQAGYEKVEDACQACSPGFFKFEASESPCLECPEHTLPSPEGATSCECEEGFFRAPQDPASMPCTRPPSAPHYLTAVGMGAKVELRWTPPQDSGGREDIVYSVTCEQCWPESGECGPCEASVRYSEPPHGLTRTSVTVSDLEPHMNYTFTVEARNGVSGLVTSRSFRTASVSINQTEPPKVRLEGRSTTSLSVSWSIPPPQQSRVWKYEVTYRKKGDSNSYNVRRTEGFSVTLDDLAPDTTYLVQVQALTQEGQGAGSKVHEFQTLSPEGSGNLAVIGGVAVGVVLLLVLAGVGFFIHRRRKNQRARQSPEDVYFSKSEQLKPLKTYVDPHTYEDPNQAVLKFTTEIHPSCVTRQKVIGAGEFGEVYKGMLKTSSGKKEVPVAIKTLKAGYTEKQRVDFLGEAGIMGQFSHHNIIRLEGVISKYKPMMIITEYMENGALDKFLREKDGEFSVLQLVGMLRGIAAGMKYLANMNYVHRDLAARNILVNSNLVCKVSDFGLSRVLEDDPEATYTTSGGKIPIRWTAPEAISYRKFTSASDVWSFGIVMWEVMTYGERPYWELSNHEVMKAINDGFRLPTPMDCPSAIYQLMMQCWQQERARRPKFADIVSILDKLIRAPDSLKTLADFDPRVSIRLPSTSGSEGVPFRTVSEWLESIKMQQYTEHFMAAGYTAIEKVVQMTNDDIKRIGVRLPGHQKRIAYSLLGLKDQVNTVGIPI

On Ephrin type-A receptor 2, `CCN1CCN(Cc2ccc(NC(=O)c3cc(NC(=O)c4cncc(-c5cccs5)c4)cc(OC)c3)cc2C(F)(F)F)CC1` gave an IC50 greater than 10 µM. The EC50 with Plasmodium falciparum [1] amounted to 0.341 µM.
Take `Cc1ccc(NC(=O)c2ccc(CN3CC[C@H](N(C)C)C3)c(C(F)(F)F)c2)cc1Nc1nccc(-c2cncnc2)n1` [BAFETINIB]: the EC50 in the data set with Plasmodium falciparum [2] was 1.3 µM.
As to `O=C1C(O)=C([C@H]2CC[C@H](c3ccc(Cl)cc3)CC2)C(=O)c2ccccc21` [ATOVAQUONE], in the data set on Plasmodium falciparum [3], the “log(activity)” value was determined as 2.95. For the same compound, the Time in the data set with Plasmodium falciparum [4] was 72 h. Besides, the T99.9% in the data set with Plasmodium falciparum [5] was 101 h.
On to `C[C@@H]1CC[C@H]2[C@@H](C)C(=O)O[C@@H]3O[C@@]4(C)CC[C@@H]1[C@]32OO4` [ARTEMISININ], for which the EC50 in the data set with Plasmodium falciparum [6] worked out at 0.0052 µM; with Plasmodium falciparum [7], 0.004 µM; in the data set on Plasmodium falciparum [8], 0.0051 µM; in the data set with Plasmodium falciparum [9] it was 0.0029 µM.
The compound `CCN1CCN(Cc2ccc(NC(=O)c3ccc(C)c(NC(=O)c4cncc(-c5cccs5)c4)c3)cc2C(F)(F)F)CC1` yielded an IC50 on Ephrin type-A receptor 2 of 0.011 µM. Further, the EC50 with Plasmodium falciparum [1] amounted to 3.91 µM.
Take `Cc1cn(-c2cc(NC(=O)c3ccc(C)c(Nc4nccc(-c5cccnc5)n4)c3)cc(C(F)(F)F)c2)cn1` [NILOTINIB]: in the data set with Plasmodium falciparum [2], the EC50 was less than 1 µM.
With `CCN1CCN(Cc2ccc(NC(=O)c3cc(Br)cc(NC(=O)c4cncc(-c5cccs5)c4)c3)cc2C(F)(F)F)CC1`, the “Ratio EC50” value in the data set with Plasmodium falciparum [10] is 1.6. Besides, the selectivity ratio in data set [11] stood at 108; in [15] it was 72. Moreover, in data set [12], the intrinsic clearance was 17 µL/min/mg. Moreover, the EC50 with MCF7 came out at 6.59 µM; with Plasmodium falciparum [13] it was 0.039 µM; in the data set on Plasmodium falciparum [14], 0.061 µM; in the data set with HepG2, 4.38 µM. Also, in [16], the t1/2 is on record as 40.7 min.
As for `O=C(NNC(=O)c1csnn1)c1ccc(Cl)cc1`, the EC50 with Plasmodium falciparum [6] is 0.106 µM; with Plasmodium falciparum [7] it was 0.174 µM; in the data set on Plasmodium falciparum [8], greater than 50 µM; in the data set on Plasmodium falciparum [9], 0.182 µM.
Turning to `CCN1CCN(Cc2ccc(NC(=O)c3cc(NC(=O)c4cncc(-c5cccs5)c4)cc(C(F)(F)F)c3)cc2C(F)(F)F)CC1`, in the data set on Plasmodium falciparum [10], the “Ratio EC50” value is given as 0.9. Further, the selectivity ratio is 114 in data set [11] and 92 in [15]. The intrinsic clearance in [12] is 17 µL/min/mg. The EC50 was determined as 3.54 µM in the data set with MCF7, 0.035 µM in the data set with Plasmodium falciparum [13], 0.031 µM with Plasmodium falciparum [14] and 2.85 µM with HepG2. The t1/2 in [16] is 41.4 min.
With `CNC(=O)c1ccc(-c2cnc3cnc(C(=O)N(C)c4ccc(Cl)cc4)cn23)cc1`, the EC50 in the data set with Plasmodium falciparum [6] turned out to be 0.0676 µM; in the data set with Plasmodium falciparum [7], 0.0098 µM; in the data set on Plasmodium falciparum [8], 0.0042 µM; in the data set on Plasmodium falciparum [9] it was 0.006 µM.
Regarding `CCN1CCN(Cc2ccc(NC(=O)c3cncc(NC(=O)c4cncc(-c5cccs5)c4)c3)cc2C(F)(F)F)CC1`, in the data set on Plasmodium falciparum [10], the “Ratio EC50” value worked out at 1.1. Further, the values for the selectivity ratio in data set [11] and in data set [15] were 62 and 34, respectively. Also, the intrinsic clearance in data set [12] worked out at 36 µL/min/mg. The EC50 in the data set with MCF7 was 4.71 µM; in the data set with Plasmodium falciparum [13], 0.07 µM; in the data set with Plasmodium falciparum [14], 0.076 µM; in the data set with HepG2, 2.55 µM. In addition, in [16], the t1/2 stood at 19.1 min.
In the case of `C[C@H]1[C@@H](O)O[C@@H]2O[C@@]3(C)CC[C@H]4[C@H](C)CC[C@@H]1[C@@]24OO3` [ARTENIMOL], the “log(activity)” value with Plasmodium falciparum [3] amounted to 3.93. The Time in the data set on Plasmodium falciparum [4] was determined as 0 h. The T99.9% in the data set with Plasmodium falciparum [5] came to 31 h.
